Measured values as given in PubChem BioAssay (NCI).
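Growth conditions: 96-well plates. Treatment: test compound, 48 hours, 5 concentrations. Analysis: linear interpolation between bracketing concentrations; unreached endpoints set to highest concentration. The concentration for 50% growth inhibition is given as GI50. At the TGI there is no net growth.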

How the values were obtained:
Experiment in all cases: NCI anticancer screen, dose series, 48 h
[1] = tested on: RPMI-8226 leukemia
[2] = tested on: HS 578T breast
[3] = tested on: ACHN renal
[4] = tested on: BT-549 breast
[5] = tested on: SK-MEL-5 melanoma
[6] = tested on: CAKI-1 renal
[7] = tested on: SF-268 CNS
[8] = tested on: OVCAR-5 ovarian
[9] = tested on: M19-MEL melanoma
[10] = tested on: DMS 114 small cell lung

| Compound | GI50 [1] | TGI [1] | GI50 [2] | TGI [2] | GI50 [3] | TGI [3] | GI50 [4] | TGI [4] | GI50 [5] | TGI [5] | GI50 [6] | TGI [6] | GI50 [7] | TGI [7] | GI50 [8] | TGI [8] | TGI [9] | TGI [10] |
| --- | --- | --- | --- | --- | --- | --- | --- | --- | --- | --- | --- | --- | --- | --- | --- | --- | --- | --- |
| COc1cc(F)c(F)c(Nc2ccc(I)cc2F)c1NS(=O)(=O)C1(CC(O)CO)CC1 (stereo not drawn) | 16 µM | 54.6 µM | 10.8 µM | 55.4 µM | 17 µM | > 73.9 µM | 14.6 µM | 35.2 µM | 8.12 µM | 21.9 µM | 10.2 µM | 54.4 µM | 15.6 µM | 55 µM | 10.2 µM | 30.1 µM | – | – |
| ClC/C=C/CSc1ncnc2nc[nH]c12 | > 100 µM | > 100 µM | > 100 µM | > 100 µM | > 100 µM | > 100 µM | > 100 µM | > 100 µM | > 100 µM | > 100 µM | > 100 µM | > 100 µM | > 100 µM | > 100 µM | > 100 µM | > 100 µM | – | – |
| O=C1c2ccc3c4c(ccc(c24)C(=O)N1CCCCO)C(=O)N(CCCCO)C3=O | 2.79 µM | 14.3 µM | 5.14 µM | 24 µM | 0.92 µM | 5.18 µM | 4.82 µM | 17.4 µM | 0.388 µM | 1.48 µM | 2.27 µM | 13.6 µM | 2.09 µM | 11.5 µM | 1.57 µM | 4.06 µM | – | – |
| N#Cc1sc2nc3c(c(-c4ccccc4)c2c1N)CCCC3 | – | > 100 µM | – | – | – | > 100 µM | – | – | – | – | – | > 100 µM | – | – | – | > 100 µM | > 100 µM | – |
| COc1cc(O)c(C(=O)C2Cc3ccccc32)c(OC)c1 (stereo not drawn) | – | 47.4 µM | – | – | – | > 100 µM | – | – | – | > 100 µM | – | 72.4 µM | – | > 100 µM | – | > 100 µM | – | 97.2 µM |
| N#Cc1cnn(C(=O)c2nn(-c3ccc(Cl)cc3)cc2O)c1N | 0.21 µM | 0.657 µM | 0.192 µM | 3.43 µM | 0.322 µM | 12.5 µM | 0.287 µM | 7.17 µM | 0.464 µM | 2.51 µM | 0.259 µM | 1.47 µM | 0.439 µM | 23.8 µM | 0.61 µM | 21.6 µM | – | – |
| COC(=O)c1sc(-n2cnc3cc(OC)c(OC)cc32)cc1OCc1ccccc1C(F)(F)F | > 25 µM | > 25 µM | 6.2 µM | > 25 µM | > 25 µM | > 25 µM | > 25 µM | > 25 µM | > 25 µM | > 25 µM | > 25 µM | > 25 µM | 17.1 µM | > 25 µM | > 25 µM | > 25 µM | – | – |
| OC[C@H]1C[C@](O)(c2ccccc2Cl)[C@@H](c2ccccc2Cl)O1 | 21.7 µM | 58.2 µM | 16.3 µM | 38.4 µM | 27.4 µM | 91.2 µM | 16.9 µM | 37 µM | 17.1 µM | 31.6 µM | 32 µM | 86.1 µM | 24.2 µM | > 100 µM | 23 µM | 70.8 µM | – | – |
